The values that follow come from patent publication US8394792B2, “Heterocyclic derivatives” (C&C Research Laboratories, priority 2008, dated 2013).

The IC50 is the point on the concentration scale where inhibition reaches its midpoint. The pIC50 is −log10 of the IC50, conventionally taken in molar units.

Series [1] concerns the target T1, hURAT1 (Homo sapiens, UniProt Q96S37).
T1 construct: expressed in transfected cells; host or cells: HEK293 (human kidney cell line), transient transfection with Fugene6
T1 sequence (Q96S37 1-553): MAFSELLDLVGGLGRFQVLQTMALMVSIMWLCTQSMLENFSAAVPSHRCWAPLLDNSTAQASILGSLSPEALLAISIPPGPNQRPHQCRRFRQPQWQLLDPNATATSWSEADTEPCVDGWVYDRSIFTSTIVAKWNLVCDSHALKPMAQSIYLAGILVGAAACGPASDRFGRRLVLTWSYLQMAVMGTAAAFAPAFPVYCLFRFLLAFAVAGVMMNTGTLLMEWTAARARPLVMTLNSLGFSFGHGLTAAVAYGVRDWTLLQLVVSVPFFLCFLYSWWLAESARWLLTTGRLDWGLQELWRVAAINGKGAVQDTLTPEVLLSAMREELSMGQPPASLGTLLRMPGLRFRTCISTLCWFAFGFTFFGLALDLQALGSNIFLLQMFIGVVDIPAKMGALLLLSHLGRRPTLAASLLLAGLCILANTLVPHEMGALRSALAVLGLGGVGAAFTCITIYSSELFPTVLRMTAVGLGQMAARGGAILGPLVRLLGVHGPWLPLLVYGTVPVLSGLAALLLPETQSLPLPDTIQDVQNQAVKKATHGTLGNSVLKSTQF
As to the kind of experiment: Test for inhibiting urate reuptake activity via hURAT1 (uric acid transport assay in hURAT1-overexpressed HEK293 cell line). It is filed as cell-based. To be noted: hURAT1-overexpressed HEK293 cells, [14C]-uric acid uptake, 100 μM uric acid; read-out: IC50 (μM) hURAT, level of uric acid reuptake inhibition. On the procedure:
Test for Inhibiting Urate Reuptake Activity Via hURAT1
[hURAT1 Overexpression by Transient Transfection in Human Kidney Cell Line]
A human kidney cell line, HEK293 was incubated by using OptiMEM medium in 100 mm dish at (3*10^6 cells) for 24 hours. In order for the expression of hURAT1, a transfection mixture solution (Fugene6 18 μl:hURAT1 DNA 6 μg=3:1, in 600 μl OptiMEM medium/dish) was prepared and kept for 15 minutes at room temperature. To each dish, 600 μl of the mixture solution was injected and then incubated in 37[…] cell incubator for 24 hours. The hURAT1-overexpressed HEK293 cell line was trypsinized and cells were harvested. Cells were resuspended in medium and seeded at 6*10^5 cells/well and incubated for 24 hours in 24-well plate which was surface-coated with Poly-D-Lysine.
[Uric Acid Transport Assay in hURAT1-Overexpressed HEK293 Cell Line]
For each concentration, the stock sample solution was diluted in PBS (1 μl in 800 μl of PBS) as 1.25 fold concentrated working sample solution to obtain final concentrations of 0.01, 0.1, 1 and 10 μM. The hURAT1-overexpressed cell line was washed with 1 ml of PBS. After washing, PBS was discarded and the sample solution was diluted by 1.25 fold with PBS. Preincubation of cells with 200 μl/well of sample solution made above was conducted for 30 minutes in 37[…] cell incubator. After the incubation, each well was treated with 50 μl of PBS containing 500 μM [^14C]-uric acid (final 100 μM of uric acid/well). Cells were incubated for 2 minutes. The cells were washed twice with 1 ml of PBS.
To measure the uric acid uptake, each well was treated with 150 μl of M-per buffer (PIERCE) and kept in 37° C. cell incubator for 30 minutes to make cell lysates. 150 μl of cell lysates was transferred into test tube and 4 ml of scintillation cocktail was added. CPM value of [^14C]-uric acid absorbed into cells was detected using liquid scintillation counter. IC50 for the inhibition of uric acid uptake by each test sample was analyzed by computational numerical processing.

Series [2] is described as follows: Test for solubility according to pH. Type of series: physicochemical. To be noted: 37° C. 2 hours; for solubility at 2 h: thermodynamic from solid.
Method: 2.0 g of sodium chloride was dissolved in 7.0 mL of hydrochloric acid and water to make the total volume of 1000 mL. This solution was colorless and clear. Its pH was about 1.2.
To 250 mL of 0.2 mol/L potassium dihydrogen phosphate solution, 118 mL of 0.2 mol/L sodium hydroxide solution and water were added to make the total volume of 1000 mL. This solution was colorless and clear. Its pH was about 6.8.
For the compounds of present invention prepared in the examples, the test samples were prepared in each of the first and second solutions with 2 mg/mL concentration. This test sample solution was agitated for 10 seconds, sonicated for 1 minute and heated at 37° C. for 2 hours. The heated test sample solution was filtered to remove undissolved compounds therein. From filtered solution, 100 μl of the completely dissolved solution was sampled and 100 μl of acetonitrile was added thereto to make test sample solution. For each analysis of test sample solution, the solubility was measured by using liquid chromatography.
Series [3] has as its target CYP2C9 (Homo sapiens, UniProt P11712). As to the kind of experiment: biochemical.
[4] abbreviates: 37 °C, pH 1.2, simulated gastric fluid, first solution pH about 1.2, 2 mg/mL, read-out: Solubility (μg/mL) pH 1.2.
The mark [5] stands for this setting: 37 °C, pH 6.8, aqueous buffer, second solution pH about 6.8, 2 mg/mL, read-out: Solubility (μg/mL) pH 6.8.

pIC50: −log10 of the molar value. Converted amounts (≈) assume the structure as drawn. Structures can show the parent of a compound that is named as a salt. Where two headings read alike, the source gives them in different places.

Sequence of CYP2C9 (P11712 whole entry): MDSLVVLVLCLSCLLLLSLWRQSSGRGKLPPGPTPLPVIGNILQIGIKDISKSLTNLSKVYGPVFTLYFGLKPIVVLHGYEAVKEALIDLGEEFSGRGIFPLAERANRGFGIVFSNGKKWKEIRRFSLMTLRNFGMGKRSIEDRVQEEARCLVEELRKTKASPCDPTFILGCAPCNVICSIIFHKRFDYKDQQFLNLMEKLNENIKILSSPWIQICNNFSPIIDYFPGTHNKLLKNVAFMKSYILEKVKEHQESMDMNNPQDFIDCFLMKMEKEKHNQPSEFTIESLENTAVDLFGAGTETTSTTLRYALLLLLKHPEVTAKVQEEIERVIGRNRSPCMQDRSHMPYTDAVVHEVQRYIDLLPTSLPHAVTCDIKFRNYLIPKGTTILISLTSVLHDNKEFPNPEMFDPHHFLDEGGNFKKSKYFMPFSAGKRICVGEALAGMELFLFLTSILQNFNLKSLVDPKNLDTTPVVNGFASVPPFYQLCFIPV

As for `O=C(c1cc(Br)c(O)c(Br)c1)N1CCOc2ncccc21` [Compound 1, (3,5-dibromo-4-hydroxy-phenyl)-(2,3-dihydro-pyrido[2,3-b][1,4]oxazin-1-yl)-methanone], in series [1], the IC50 was 0.079 µM. Moreover, the solubility at 2 h in series [2] (setting [4]) was 56.1 µg/mL (≈ 135 µM); in series [2] (setting [5]), 277 µg/mL (≈ 669 µM). In series [3], the pIC50 was 4.92.
The matching figures for `Cc1ccc2c(n1)OCCN2C(=O)c1cc(Br)c(O)c(Br)c1` [Compound 7, (3,5-dibromo-4-hydroxy-phenyl)-(6-methyl-2,3-dihydro-pyrido[2,3-b][1,4]oxazin-1-yl)-methanone]: 0.3 µM, 106 µg/mL (≈ 247 µM), 109 µg/mL (≈ 255 µM) and < 4.70.
The corresponding values for `CC1(C)CN(C(=O)c2cc(Br)c(O)c(Br)c2)c2cnccc2O1` [Compound 8, (3,5-dibromo-4-hydroxy-phenyl)-(2,2-dimethyl-2,3-dihydro-pyrido[4,3-b][1,4]oxazin-4-yl)-methanone] are 0.353 µM, 986 µg/mL (≈ 2230 µM), 344 µg/mL (≈ 778 µM) and < 4.70.
The corresponding values for `O=C(c1ccc(O)c(C(F)(F)F)c1)N1CCOc2ccncc21` [Compound 12, (2,3-dihydro-pyrido[4,3-b][1,4]oxazin-4-yl)-(4-hydroxy-3-trifluoromethyl-phenyl)-methanone] are 0.0408 µM, 1880 µg/mL (≈ 5800 µM), 132 µg/mL (≈ 407 µM) and < 4.22.
With `Br.O=C(c1cc(Cl)c(O)c(Cl)c1)N1CCOc2ccncc21` [Compound 13, (3,5-dichloro-4-hydroxy-phenyl)-(2,3-dihydro-pyrido[4,3-b][1,4]oxazin-4-yl)-methanone bromic acid salt], the IC50 in series [1] was found to be 0.337 µM. Besides, the solubility at 2 h is 1400 µg/mL in series [2] (pH 1.2, simulated gastric fluid, first solution pH about 1.2, 2 mg/mL, read-out: Solubility (μg/mL) pH 1.2) and 847 µg/mL in series [2] (pH 6.8, aqueous buffer, second solution pH about 6.8, 2 mg/mL, read-out: Solubility (μg/mL) pH 6.8). Besides, in series [3], the pIC50 is < 4.22.
In the case of `O=C(c1cc(Cl)c(O)c([N+](=O)[O-])c1)N1CCOc2ccncc21` [Compound 14, (3-chloro-4-hydroxy-5-nitro-phenyl)-(2,3-dihydro-pyrido[4,3-b][1,4]oxazin-4-yl)-methanone], in series [1], the IC50 is 0.126 µM. In addition, the solubility at 2 h in series [2] (setting [4]) was 1480 µg/mL (≈ 4410 µM); in series [2] (setting [5]) it was 747 µg/mL (≈ 2230 µM). In addition, the pIC50 in series [3] was 4.78.
Turning to `O=C(c1cc(Cl)c(O)c(Cl)c1)N1CCOc2cnccc21` [Compound 15, (3,5-dichloro-4-hydroxy-phenyl)-(2,3-dihydro-pyrido[3,4-b][1,4]oxazin-1-yl)-methanone bromic acid salt], the half-inhibitory concentration (IC50) in series [1] was 0.458 µM. Also, in series [2] (setting [4]), the solubility at 2 h was 1510 µg/mL. In addition, the “Solubility (μg/mL) pH 6.8” value in series [2] (second solution pH about 6.8, 2 mg/mL) was 453 μg/mL. Further, in series [3], the pIC50 was 5.35.
Take `Br.O=C(c1cc(Cl)c(O)c([N+](=O)[O-])c1)N1CCOc2cnccc21` [Compound 17, (3-chloro-4-hydroxy-5-nitro-phenyl)-(2,3-dihydro-pyrido[3,4-b][1,4]oxazin-1-yl)-methanone bromic acid salt]: in series [1], the IC50 stood at 1 µM. The solubility at 2 h in series [2] (setting [4]) was 1610 µg/mL; in series [2] (setting [5]), 1890 µg/mL.
In the case of `O=C(c1cc(Br)c(O)c(Br)c1)N1CCOc2ncc(C(F)(F)F)cc21` [Compound 22-2, (3,5-dibromo-4-hydroxy-phenyl)-(7-trifluoromethyl-2,3-dihydro-pyrido[2,3-b][1,4]oxazin-1-yl)-methanone], the IC50 in series [1] was 0.0043 µM. The solubility at 2 h in series [2] (setting [4]) was < 0.1 µg/mL; in series [2] (setting [5]), 153 µg/mL (≈ 317 µM). In series [3], the pIC50 is 5.02.
For `O=C(c1cc(Br)c(O)c(Br)c1)N1CCOc2ncc(-c3cccnc3)cc21` [Compound 52, (3,5-dibromo-4-hydroxy-phenyl)-(7-pyridin-3-yl-2,3-dihydro-pyrido[2,3-b][1,4]oxazin-1-yl]-methanone], in series [1], the half-maximal inhibitory concentration (IC50) is 0.0103 µM. In series [3], the negative logarithm of the IC50 (pIC50) was < 4.70.
The corresponding values for `O=C(c1cc(Br)c(O)c(Br)c1)N1CCOc2ncc(-c3ccoc3)cc21` [Compound 53, (3,5-dibromo-4-hydroxy-phenyl)-(7-furan-3-yl-2,3-dihydro-pyrido[2,3-b][1,4]oxazin-1-yl]-methanone] are 0.0562 µM and 4.99.
The corresponding values for `O=C(c1cc(Br)c(O)c(Br)c1)N1CCOc2c1cnc1ccccc21` [Compound 55, (3,5-dibromo-4-hydroxy-phenyl)-(2,3-dihydro-4-oxa-1,9-diaza-phenanthren-1-yl)-methanone] are 0.0488 µM and 5.05.
Take `COc1c(Br)cc(C(=O)N2CCOc3nc(C)ccc32)cc1Br` [Compound 58, (3,5-dibromo-4-methoxy-phenyl)-(6-methyl-2,3-dihydro-pyrido[2,3-b][1,4]oxazin-1-yl)-methanone]: the IC50 in series [1] turned out to be 0.742 µM. The negative-log IC50 (pIC50) in series [3] is < 4.70.
The corresponding values for `O=C(c1cc(Br)c(O)c(Br)c1)N1CCOc2ncc(-c3cncc4ccccc34)cc21` [Compound 61, (3,5-dibromo-4-hydroxy-phenyl)-(7-isoquinolin-4-yl-2,3-dihydro-pyrido[2,3-b][1,4]oxazin-1-yl)-methanone] are 0.002 µM and 5.91.
`O=C(c1cc(Br)c(O)c(Br)c1)N1CCOc2ncc(-c3cccc(C(F)(F)F)c3)cc21` [Compound 63, (3,5-dibromo-4-hydroxy-phenyl)-[7-(3-trifluoromethyl-phenyl)-2,3-dihydro-pyrido[2,3-b][1,4]oxazin-1-yl]-methanone]: the IC50 in series [1] was found to be 0.0123 µM. For the same molecule, the pIC50 in series [3] was 5.95.
The corresponding values for `N#Cc1ccc(-c2cnc3c(c2)N(C(=O)c2cc(Br)c(O)c(Br)c2)CCO3)cc1` [Compound 65, 4-[1-(3,5-dibromo-4-hydroxy-benzoyl)-2,3-dihydro-1H-pyrido[2,3-b][1,4]oxazin-7-yl]-benzonitrile] are 0.003 µM and 4.91.
With `O=C(c1cc(Br)c(O)c(Br)c1)N1CCOc2ncc(-c3ccc(OC(F)(F)F)cc3)cc21` [Compound 66, (3,5-dibromo-4-hydroxy-phenyl)-[7-(4-trifluoromethoxy-phenyl)-2,3-dihydro-pyrido[2,3-b][1,4]oxazin-1-yl]-methanone], the IC50 in series [1] amounted to 0.0358 µM. The pIC50 in series [3] was 5.87.
On to `COc1cncc(-c2cnc3c(c2)N(C(=O)c2cc(Br)c(O)c(Br)c2)CCO3)c1` [Compound 68, (3,5-dibromo-4-hydroxy-phenyl)-[7-(5-methoxy-pyridin-3-yl)-2,3-dihydro-pyrido[2,3-b][1,4]oxazin-1-yl]-methanone], for which, in series [1], the IC50 is 0.0232 µM. Moreover, the pIC50 in series [3] was 5.86.
Regarding `Cc1cnc2c(c1)N(C(=O)c1ccc(O)c(C(F)(F)F)c1)CCO2` [Compound 69, (4-hydroxy-3-trifluoromethyl-phenyl)-(7-methyl-2,3-dihydro-pyrido[2,3-b][1,4]oxazin-1-yl)-methanone], the 50% inhibitory concentration (IC50) in series [1] came to 0.0331 µM. Moreover, the pIC50 in series [3] was < 4.70.
The corresponding values for `Oc1c(Br)cc(C(=S)N2CCOc3ccncc32)cc1Br` [Compound 74, (3,5-dibromo-4-hydroxy-phenyl)-(2,3-dihydro-pyrido[4,3-b][1,4]oxazin-4-yl)-methanethione trifluoroacetic acid salt] are 0.006 µM and 4.78.
